43 compounds from patent US8877745B2, “CCR2 receptor antagonists, method for producing the same, and use thereof as medicaments” (Boehringer Ingelheim International GmbH, priority 2010, dated 2014) can be followed below.

The target of this assay is T1, CCR2 (Homo sapiens, UniProt P41597).
T1 construct: Membranes were prepared from THP-1 cells; endogenous in cells; host or cells: THP-1 (human acute monocytic leukaemia cells), membrane preparation
T1 sequence (P41597 whole entry): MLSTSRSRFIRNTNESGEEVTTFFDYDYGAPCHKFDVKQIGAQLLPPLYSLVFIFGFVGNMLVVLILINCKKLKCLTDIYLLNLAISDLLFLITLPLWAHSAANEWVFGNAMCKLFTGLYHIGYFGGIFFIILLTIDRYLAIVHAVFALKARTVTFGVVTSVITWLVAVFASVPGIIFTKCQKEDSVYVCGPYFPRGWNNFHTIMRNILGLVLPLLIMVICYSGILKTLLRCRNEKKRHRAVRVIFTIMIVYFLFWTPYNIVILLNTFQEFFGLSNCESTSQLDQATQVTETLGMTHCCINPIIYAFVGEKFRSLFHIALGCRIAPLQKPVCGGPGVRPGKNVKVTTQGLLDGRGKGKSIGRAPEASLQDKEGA
Briefly: CCR2 receptor membrane binding assay ([125I]MCP-1, THP-1 cell membranes, SPA beads). As to conditions: THP-1 membranes, [125I]MCP-1, bound radioactivity determined after 8 h; read-out: hKi. On the procedure:
The above exemplary substances have been tested for binding to CCR2 using a binding assay as outlined herein below:
THP-1 cells (human acute monocytic leukaemia cells) were cultured under standardized conditions at 37° C. and 5% CO2 in a humidified incubator. THP-1 cells were cultivated in RPMI 1640 medium (Gibco 21875) containing 1% MEM-NEAA (Gibso 11140) 2 mM L-glutamine, 1.5 g/L sodium bicarbonate, 4.5 g/L glucose, 10 mM HEPES and 1.0 mM sodium pyruvate, 90%; 10% fetal calf serum (FCS Gibco 10500-064).
Membranes were prepared from THP-1 cells. THP-1 cells were centrifuged at 300×g at 4° C. for 10 min. The cell pellet was resuspended in Phosphate Buffer Saline (PBS, including 10 μM Pefabloc and a protease inhibitor mix ‘complete’, Boehringer Mannheim (1 tablet/50 ml)), to a concentration of […]. The membrane preparation was performed by disrupting the cells by nitrogen […] (at 50 bar, for 1 h) in a “Nitrogen Bombe” (Parr Instrument). Cell debris was removed by centrifugation (800×g at 4° C., 1 min). The supernatant was centrifuged at 80000×g, 4° C. for 30 min to sediment the cell membranes. Usually 50 mg of protein (Bradford assay) were yielded from 1×10E9 cells. The membranes were resuspended in 25 mM HEPES, 25 mM MgCl2, 1 mM CaCl2, 10% Glycerine for storage in aliquots at −80° C. in 25 mM HEPES, 25 mM MgCl2, 1 mM CaCl2, 10% Glycerine and stored at −80° C.
Receptor Membrane Binding Assay:
Perkin Elmer NEX 332 Jod 125 MCP-1, Stock: 2200 Ci/mmol solved in […] assay buffer, stored at −20° C. THP-1 membrane were adjusted with 25 mM HEPES, pH 7.2; 5 mM MgCl2; 0.5 mM CaCl2; 0.2% BSA assay buffer to a concentration of 2.5 μg/15 μl. Amersham Biosciences PVT-WGA Beads (RPNQ0001) were adjusted with assay buffer to a concentration of 0.24 mg/30 μl. For preparation of the membrane-bead-suspension membranes and beads were incubated for 30 min at RT under rotation (60 rpm) with a ratio of 1:2. Test compounds dissolved in 100% DMSO to a concentration of 10 mM and are further diluted with 100% DMSO to 1 mM. All additional compound dilutions were obtained with assay buffer, final 1% DMSO. Compounds, membrane-bead-suspension and [^125I]MCP-1 (ca. 25000 cpm/10 μl) were incubated. Bound radioactivity was determined by scintillation counter after 8 h. Determination of affinity of test compounds (dissociation constant hKi) is calculated by iterative fitting of experimental data using the “easy sys” program, which is based on law of mass action (Schittkowski K. (1994), Numerische Mathematik, Vol. 68, 129-142).
Turning to `COc1c(C(=O)N2CCC(N3CCC(N(C)S(C)(=O)=O)CC3)CC2)ncnc1N1CCc2ccc(C(F)(F)F)cc2C1` [Example 68], the Ki was 50 nM. Regarding `COc1c(C(=O)N2CCC(N3CCC(N(C)S(C)(=O)=O)CC3)CC2)ncnc1N1CCc2ccc(OC(F)(F)F)cc2C1` [Example 69], the Ki worked out at 62 nM.

Regarding `CO[C@@H]1COCC[C@@H]1NC1CCN(C(=O)c2ccnc(N3CCc4ccc(C(F)(F)F)cc4C3)c2C)CC1` [Example 69a], the Ki came out at 30 nM. For the compound `Cc1c(C(=O)N2CCC(N[C@@H]3CCOC[C@@H]3F)CC2)ncnc1N1CCc2ccc(Br)cc2C1` [Example 69ab], the Ki is 37 nM. In the case of `Cc1c(C(=O)N2CCC(N[C@H]3CCOC[C@H]3F)CC2)ncnc1N1CCc2ccc(Br)cc2C1` [Example 69ac], the Ki turned out to be 96 nM. For the compound `COc1c(C(=O)N2CCC(N[C@H]3CCOC[C@H]3OC)CC2)ncnc1N1CCc2ccc(C(F)(F)F)cc2C1` [Example 69b], the Ki was found to be 9 nM.

`COc1c(C(=O)N2CCC(N[C@@H]3CCOC[C@@H]3OC)CC2)ncnc1N1CCc2ccc(OC(F)(F)F)cc2C1` [Example 69c]: the Ki was 28 nM. Turning to `COc1c(C(=O)N2CCC(N[C@H]3CCOC[C@H]3OC)CC2)ncnc1N1CCc2ccc(OC(F)(F)F)cc2C1` [Example 69d], the Ki was found to be 11 nM. Take `CO[C@@H]1COCC[C@@H]1NC1CCN(C(=O)c2ncnc(N3COc4ccc(C(F)(F)F)cc4C3)c2C)CC1` [Example 69e]: the Ki amounted to 1 nM. As for `CO[C@@H]1COCC[C@@H]1NC1CCN(C(=O)c2ncnc(N3CCc4ccc(C)cc4C3)c2C)CC1` [Example 69f], the Ki came out at 17 nM. Then `Cc1c(C(=O)N2CCC(N3CCC(N(C)S(C)(=O)=O)CC3)CC2)ncnc1-n1ccc2cc(C(F)(F)F)ccc21` [Example 69g], with 1300 nM.

In the case of `CO[C@@H]1COCC[C@@H]1NC1CCN(C(=O)c2ncnc(N3CCc4ccc(F)cc4C3)c2C)CC1` [Example 69h], the Ki was 39 nM. Next, `COc1nc(C(=O)N2CCC(N[C@@H]3CCOC[C@@H]3OC)CC2)c(C)c(N2CCc3ccc(C(F)(F)F)cc3C2)n1` [Example 69i]: 4 nM. For the compound `COc1nc(C(=O)N2CCC(N[C@H]3CCOC[C@H]3OC)CC2)c(C)c(N2CCc3ccc(C(F)(F)F)cc3C2)n1` [Example 69j], the Ki was 1 nM. In the case of `Cc1c(C(=O)N2CCC(NC3CCOCC3F)CC2)ncnc1N1CCc2ccc(C(F)(F)F)cc2C1` (stereo not shown) [Example 69k], the Ki was 29 nM. Take `Cc1c(C(=O)N2CCC(N[C@@H]3CCOC[C@@H]3F)CC2)ncnc1N1COc2ccc(C(F)(F)F)cc2C1` [Example 69l]: the Ki is 14 nM. Consider `Cc1c(C(=O)N2CCC(N[C@@H]3CCOC[C@@H]3F)CC2)ncnc1N1CCc2ccc(C(F)(F)F)cc2C1` [Example 69m], for which the Ki was determined as 16 nM. Take `Cc1c(C(=O)N2CCC(N[C@H]3CCOC[C@H]3F)CC2)ncnc1N1CCc2ccc(C(F)(F)F)cc2C1` [Example 69n]: the Ki turned out to be 24 nM. As for `Cc1c(C(=O)N2CCC(N[C@H]3CCOC[C@H]3F)CC2)ncnc1N1COc2ccc(C(F)(F)F)cc2C1` [Example 69o], the Ki came out at 10 nM. Next, `CO[C@@H]1COCC[C@@H]1NC1CCN(C(=O)c2ncnc(N3CCc4cc(C(F)(F)F)ccc4C3)c2C)CC1` [Example 69p]: 6 nM; `CO[C@H]1COCC[C@H]1NC1CCN(C(=O)c2nc(C3CC3)nc(N3CCc4ccc(C(F)(F)F)cc4C3)c2C)CC1` [Example 69q]: 0.7 nM. Next, `Cc1c(C(=O)N2CCC(NC3CCOCC3)CC2)ncnc1N1CCc2ccc(C(F)(F)F)cc2C1` [Example 69r]: 7 nM; `COc1nc(C(=O)N2CCC(NC3CCOCC3F)CC2)c(C)c(N2CCc3ccc(C(F)(F)F)cc3C2)n1` (stereo not shown) [Example 69s]: 8 nM; `COc1nc(C(=O)N2CCC(NC3CCOCC3)CC2)c(C)c(N2CCc3ccc(C(F)(F)F)cc3C2)n1` [Example 69w]: 5 nM. Next, `CO[C@@H]1COCC[C@@H]1NC1CCN(C(=O)c2nc(C3CC3)nc(N3CCc4ccc(C(F)(F)F)cc4C3)c2C)CC1` [Example 69x]: 0.7 nM; `CO[C@@H]1COCC[C@@H]1NC1CCN(C(=O)c2ncnc(N3CCc4ccc(Br)cc4C3)c2C)CC1` [Example 69y]: 7 nM. On to `CO[C@H]1COCC[C@H]1NC1CCN(C(=O)c2ncnc(N3CCc4ccc(Br)cc4C3)c2C)CC1` [Example 69z], for which the Ki turned out to be 13 nM. Consider `Cc1c(C(=O)N2CCN(C)CC2)ncnc1N1CCc2ccc(C(F)(F)F)cc2C1` [Example 70], for which the Ki was found to be 3560 nM. For the compound `Cc1c(C(=O)N2CCN(C(C)C)CC2)ncnc1N1CCc2ccc(C(F)(F)F)cc2C1` [Example 71], the Ki worked out at 2100 nM. For the compound `Cc1c(C(=O)N2CCC(N3CCC(O)CC3)CC2)ncnc1N1CCc2ccc(C(F)(F)F)cc2C1` [Example 72], the Ki was 104 nM. With `Cc1c(C(=O)N2CCC(N3CCCC3)CC2)ncnc1N1CCc2ccc(C(F)(F)F)cc2C1` [Example 73], the Ki came to 52 nM.

With `CCN(CC)C1CCN(C(=O)c2ncnc(N3CCc4ccc(C(F)(F)F)cc4C3)c2C)CC1` [Example 74], the Ki turned out to be 552 nM.

Regarding `CCN(CC)C1CCN(C(=O)c2ncnc(N3CCc4ccc(C(F)(F)F)cc4C3)c2C)C1` (stereo not shown) [Example 75], the Ki was determined as 657 nM. Turning to `Cc1c(C(=O)N2CCCN(CCO)CC2)ncnc1N1CCc2ccc(C(F)(F)F)cc2C1` [Example 76], the Ki was found to be 3400 nM. `Cc1c(C(=O)N2CCC(N3CCCC(O)C3)CC2)ncnc1N1CCc2ccc(C(F)(F)F)cc2C1` (stereo not shown) [Example 77]: the Ki was 410 nM.

On to `Cc1c(C(=O)N2CCC(C(N)=O)(N3CCCCC3)CC2)ncnc1N1CCc2ccc(C(F)(F)F)cc2C1` [Example 78], for which the Ki was found to be 1250 nM. Then `Cc1c(C(=O)N2CCC(N(C)C)CC2)ncnc1N1CCc2ccc(C(F)(F)F)cc2C1` [Example 79], with 925 nM; and `Cc1c(C(=O)N2CCC(N3CCCCC3)CC2)ncnc1N1CCc2ccc(C(F)(F)F)cc2C1` [Example 80], with 101 nM. As to `Cc1c(C(=O)N2CCCN(C)CC2)ncnc1N1CCc2ccc(C(F)(F)F)cc2C1` [Example 81], the Ki was found to be 2320 nM. Consider `Cc1c(C(=O)N2CCC(N3CCOCC3)CC2)ncnc1N1CCc2ccc(C(F)(F)F)cc2C1` [Example 82], for which the Ki came to 203 nM. In the case of `Cc1c(C(=O)N2CCC(N3CCC(c4cccc(C(=O)O)c4)CC3)CC2)ncnc1N1CCc2ccc(C(F)(F)F)cc2C1` [Example 83], the Ki is 698 nM.

On to `CO[C@H]1COCC[C@H]1N(C)C1CCN(C(=O)c2ncnc(N3CCc4ccc(C(F)(F)F)cc4C3)c2C)CC1` [Example 84], for which the Ki was found to be 41 nM.

In the case of `CO[C@@H]1COCC[C@@H]1N(C)C1CCN(C(=O)c2ncnc(N3CCc4ccc(C(F)(F)F)cc4C3)c2C)CC1` [Example 85], the Ki turned out to be 5 nM.
